According to paper PMC8752738, “A propolis-derived small molecule ameliorates metabolic syndrome in obese mice by targeting the CREB/CRTC2 transcriptional complex” (Nature Communications, 2022):
Where “and” joins values, the source holds several entries; their conditions need not be identical. Identical values can stand only once.

Tests used:
FGF21 = assay: Immunoblotting of plasma and liver FGF21; assay type: in vivo, mouse
Method: 1 Supplementary Figure 10. A57 is novel inhibitor of the CREB/CRTC2 protein complex. […]
20 e) Immunoblotting of plasma and liver FGF21 protein in Crtc2KO mice, which induced by a high
21 fat diet for 13 weeks then orally administered APC (20 mg/kg), A57 (20 mg/kg) or vehicle (VEH) for
1 3 weeks. Two technological repeats present a composite pool including 5 mice per group. One
2 representative result from three-independent experiments is shown here.
3 f) Relative plasma FGF21 (top) and liver FGF21 (bottom), normalized by R250 signaling or
4 ACTIN respectively, is shown here as a bar graph. Data are represented as mean ± SEM (n=5 per
5 group, two technological repeats present a composite pool). ns, p > 0.05; *, p < 0.05; **, p < 0.01; p
7 for this figure are provided as a Source data file.

[1] = biological target: T1, endogenous CRTC2 / CBP interaction (Mus musculus, UniProt P45481+Q3U182); assay: Co-immunoprecipitation by anti-CRTC2 antibody, primary hepatocytes: CBP; assay type: cell-based
T1 construct: endogenous in cells; host or cells: mouse primary hepatocytes
Method: Fig. 2 APC blocks interaction between CREB and CRTC2. a Analysis of GST-CREB immunoprecipitated with overexpressed FLAG-CRTC2 from the lysates of HEK293T cells. APC (10 μM) was added to the culture media for 1 h and the following IP mixture. The relative gray density of FLAG in GST-pull-down fraction is shown as a bar graph (bottom). One of three independent experiments is presented (top, n = 3). Data are represented as mean ± SEM); P values were determined by one-way ANOVA followed Dunnett’s multiple comparisons test. b Analysis of HA-CRTC2 immunoprecipitated with endogenous CREB from primary hepatocyte lysates. […] Data are represented as mean ± SEM; P values were determined by one-way ANOVA followed Dunnett’s multiple comparisons test. c Immunoblotting analysis of endogenous CREB, CRTC2, and CBP interaction by an anti-CRTC2 antibody from the lysate of primary hepatocytes. […] Data are represented as mean ± SEM; P values were determined by two-way ANOVA followed Bonferroni’s multiple comparisons test. d Immunoblotting analysis of protein GST-CREB recovered HIS-CRTC2-S171A proteins purified from E. coli. […] Data are represented as mean ± SEM; P values were determined by one-way ANOVA followed Dunnett’s multiple comparisons test (compared with APC = 0). […]

[2] = biological target: T2, CREB / HA-CRTC2 interaction (Mus musculus, UniProt Q01147); assay: Co-immunoprecipitation of HA-CRTC2 with endogenous CREB, primary hepatocytes; assay type: cell-based; settings: for HA/CREB in CREB-COIP fraction: Fig 2b replicates, AD-HA-CRTC2 +
T2 construct: expressed in transfected cells; host or cells: mouse primary hepatocytes infected with Ad-HA-Crtc2; CREB is endogenous
Method: Fig. 2 APC blocks interaction between CREB and CRTC2. a Analysis of GST-CREB immunoprecipitated with overexpressed FLAG-CRTC2 from the lysates of HEK293T cells. APC (10 μM) was added to the culture media for 1 h and the following IP mixture. The relative gray density of FLAG in GST-pull-down fraction is shown as a bar graph (bottom). One of three independent experiments is presented (top, n = 3). Data are represented as mean ± SEM); P values were determined by one-way ANOVA followed Dunnett’s multiple comparisons test. b Analysis of HA-CRTC2 immunoprecipitated with endogenous CREB from primary hepatocyte lysates. APC (10 μM) was added to the culture media for 1-h before 30-min of stimulation with glucagon (Gluc, 100 nM) and the following IP mixture as indicated. Top panel presents one of three independent experiments, and the relative gray density of HA in CREB-IP-faction is shown as a bar graph (bottom, n = 3). Data are represented as mean ± SEM; P values were determined by one-way ANOVA followed Dunnett’s multiple comparisons test. c Immunoblotting analysis of endogenous CREB, CRTC2, and CBP interaction by an anti-CRTC2 antibody from the lysate of primary hepatocytes. APC (10 μM) was added to the culture media for 1-h before 30-min stimulation with glucagon. Related CREB and CBP normalized by CRTC2, respectively, in CRTC2-IP fractions. The top panel presents one of three independent experiments, and the relative gray density of CREB and CBP normalized to CRTC2 in the CRTC2-IP-faction is shown as a bar graph (bottom, n = 3). Data are represented as mean ± SEM; P values were determined by two-way ANOVA followed Bonferroni’s multiple comparisons test. d Immunoblotting analysis of protein GST-CREB recovered HIS-CRTC2-S171A proteins purified from E. coli. The addition of APC (5, 10, or 50 μM) in pull-down mixtures is indicated. The top part presents one of three independent experiments, and the relative gray density of HIS normalized to GST in GST-pull-down faction is shown as a bar graph (bottom, n = 3). Data are represented as mean ± SEM; P values were determined by one-way ANOVA followed Dunnett’s multiple comparisons test (compared with APC = 0).
Immunoblotting and immunoprecipitation assays were performed as previously described, with antibodies recognizing CREB, Ser133-P-CREB, AMPK, P-AMPK, AKT, P-AKT (Cell Signaling), PGC-1α (Merck), CRTC2 (Calbiochem), PCK1 (Santa Cruz), SREBP1 (Santa Cruz), SREBP2 (BD), HA (Convance), LXRα (Santa Cruz), FLAG (Sigma), GST (Covance), HIS (Abmart), GAPDH (AOGMA), α-TUBULIN (Abmart), β-ACTIN (Abmart), and other antibodies (Supplementary Table 3). For immunostaining assays, primary cultured hepatocytes seeded on coverslips were fixed with 4% paraformaldehyde for 20 min, permeabilized with 0.3% Triton X-100 in PBS, and then blocked by 5% normal goat serum and 0.3% Triton X-100 in PBS, followed by incubation with anti-CREB (1:1000), anti-P-CREB (1:1000), or anti-HA (1:3000) antibodies for 1 h at 4 °C. Slides were then washed, and after washing, slides were incubated with fluorochrome-conjugated secondary antibodies (Invitrogen). Slides were then washed and mounted with Vectashield mounting media containing 4, 6-diamidino-2-phenylindole (DAPI).

T1 sequence (Q3U182 2-692 limits assumed): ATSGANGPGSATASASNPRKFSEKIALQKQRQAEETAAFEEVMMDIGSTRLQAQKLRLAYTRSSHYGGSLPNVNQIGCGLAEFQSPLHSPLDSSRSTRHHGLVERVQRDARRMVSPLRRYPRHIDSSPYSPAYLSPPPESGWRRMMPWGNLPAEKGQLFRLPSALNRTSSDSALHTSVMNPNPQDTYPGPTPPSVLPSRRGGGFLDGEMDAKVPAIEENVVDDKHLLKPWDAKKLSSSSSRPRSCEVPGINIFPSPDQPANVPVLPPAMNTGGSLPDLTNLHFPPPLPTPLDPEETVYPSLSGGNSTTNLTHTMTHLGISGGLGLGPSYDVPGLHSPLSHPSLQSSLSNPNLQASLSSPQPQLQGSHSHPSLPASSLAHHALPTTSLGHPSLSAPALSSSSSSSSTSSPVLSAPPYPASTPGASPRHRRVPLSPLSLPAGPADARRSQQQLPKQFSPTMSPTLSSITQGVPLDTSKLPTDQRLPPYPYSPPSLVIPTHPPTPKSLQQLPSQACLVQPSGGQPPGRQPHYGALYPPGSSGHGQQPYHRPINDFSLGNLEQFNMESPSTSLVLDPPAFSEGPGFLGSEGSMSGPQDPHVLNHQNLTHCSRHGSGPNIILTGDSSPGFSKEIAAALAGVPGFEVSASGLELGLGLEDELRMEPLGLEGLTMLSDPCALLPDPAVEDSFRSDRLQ
T1 sequence (P45481 2-2441 limits assumed): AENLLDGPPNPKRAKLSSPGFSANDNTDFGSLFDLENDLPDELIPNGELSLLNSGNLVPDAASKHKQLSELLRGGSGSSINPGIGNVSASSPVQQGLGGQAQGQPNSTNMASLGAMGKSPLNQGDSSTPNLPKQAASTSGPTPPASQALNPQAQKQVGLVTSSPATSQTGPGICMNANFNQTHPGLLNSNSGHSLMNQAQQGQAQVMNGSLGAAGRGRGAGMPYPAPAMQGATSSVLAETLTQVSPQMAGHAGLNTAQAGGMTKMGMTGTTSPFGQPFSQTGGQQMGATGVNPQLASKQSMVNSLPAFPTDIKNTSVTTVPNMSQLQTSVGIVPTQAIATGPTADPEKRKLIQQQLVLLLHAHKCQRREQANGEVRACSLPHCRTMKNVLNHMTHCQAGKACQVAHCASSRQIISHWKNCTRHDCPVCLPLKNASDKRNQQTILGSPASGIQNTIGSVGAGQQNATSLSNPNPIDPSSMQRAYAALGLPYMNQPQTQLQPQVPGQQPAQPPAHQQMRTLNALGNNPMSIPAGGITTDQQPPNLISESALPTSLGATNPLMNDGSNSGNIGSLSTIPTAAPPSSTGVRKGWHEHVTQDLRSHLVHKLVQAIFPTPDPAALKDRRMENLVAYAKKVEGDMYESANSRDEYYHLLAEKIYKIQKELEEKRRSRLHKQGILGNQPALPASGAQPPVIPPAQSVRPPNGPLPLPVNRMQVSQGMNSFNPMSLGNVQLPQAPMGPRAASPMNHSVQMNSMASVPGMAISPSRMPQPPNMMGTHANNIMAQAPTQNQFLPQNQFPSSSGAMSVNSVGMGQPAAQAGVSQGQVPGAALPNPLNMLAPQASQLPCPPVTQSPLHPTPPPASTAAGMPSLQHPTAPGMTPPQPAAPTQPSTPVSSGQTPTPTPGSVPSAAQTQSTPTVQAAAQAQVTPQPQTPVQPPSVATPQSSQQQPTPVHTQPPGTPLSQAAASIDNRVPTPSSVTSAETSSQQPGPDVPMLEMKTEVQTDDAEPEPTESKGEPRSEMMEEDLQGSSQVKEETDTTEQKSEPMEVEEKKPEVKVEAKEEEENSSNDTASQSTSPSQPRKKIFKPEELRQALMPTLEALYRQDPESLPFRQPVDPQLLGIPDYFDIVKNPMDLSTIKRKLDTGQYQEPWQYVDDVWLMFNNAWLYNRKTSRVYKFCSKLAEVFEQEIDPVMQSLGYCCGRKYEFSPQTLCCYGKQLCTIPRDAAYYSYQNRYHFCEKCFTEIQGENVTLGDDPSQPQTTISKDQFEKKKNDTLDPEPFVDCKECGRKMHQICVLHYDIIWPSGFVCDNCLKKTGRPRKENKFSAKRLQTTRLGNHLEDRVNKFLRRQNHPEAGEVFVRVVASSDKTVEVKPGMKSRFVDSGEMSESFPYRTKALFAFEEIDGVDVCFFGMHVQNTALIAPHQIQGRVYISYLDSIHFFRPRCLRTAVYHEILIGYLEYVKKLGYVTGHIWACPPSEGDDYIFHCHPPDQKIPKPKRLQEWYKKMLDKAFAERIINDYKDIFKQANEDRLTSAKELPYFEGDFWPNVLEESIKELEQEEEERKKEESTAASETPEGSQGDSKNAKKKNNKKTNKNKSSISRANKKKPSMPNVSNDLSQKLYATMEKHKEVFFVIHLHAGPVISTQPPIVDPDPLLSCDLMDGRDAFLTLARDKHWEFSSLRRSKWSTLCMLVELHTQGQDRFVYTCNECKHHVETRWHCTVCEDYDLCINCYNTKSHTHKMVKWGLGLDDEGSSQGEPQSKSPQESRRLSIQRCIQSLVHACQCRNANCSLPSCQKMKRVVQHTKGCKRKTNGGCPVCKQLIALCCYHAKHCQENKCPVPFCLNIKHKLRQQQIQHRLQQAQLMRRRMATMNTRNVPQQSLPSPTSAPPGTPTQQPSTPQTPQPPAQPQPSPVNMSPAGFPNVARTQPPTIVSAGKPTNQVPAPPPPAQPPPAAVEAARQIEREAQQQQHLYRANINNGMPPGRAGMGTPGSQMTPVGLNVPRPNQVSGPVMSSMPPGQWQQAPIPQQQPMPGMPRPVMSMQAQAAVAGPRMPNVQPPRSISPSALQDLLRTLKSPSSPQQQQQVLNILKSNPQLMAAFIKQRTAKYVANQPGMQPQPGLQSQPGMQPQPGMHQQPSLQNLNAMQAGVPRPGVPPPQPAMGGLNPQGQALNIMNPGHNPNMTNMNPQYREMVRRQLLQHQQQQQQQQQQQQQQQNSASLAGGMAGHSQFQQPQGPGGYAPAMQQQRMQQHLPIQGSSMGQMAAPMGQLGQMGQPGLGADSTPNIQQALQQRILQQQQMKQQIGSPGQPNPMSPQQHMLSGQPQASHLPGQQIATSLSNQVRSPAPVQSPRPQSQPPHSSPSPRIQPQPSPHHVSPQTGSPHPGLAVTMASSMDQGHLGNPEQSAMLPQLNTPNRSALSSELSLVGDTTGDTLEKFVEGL
T2 sequence (Q01147 whole entry): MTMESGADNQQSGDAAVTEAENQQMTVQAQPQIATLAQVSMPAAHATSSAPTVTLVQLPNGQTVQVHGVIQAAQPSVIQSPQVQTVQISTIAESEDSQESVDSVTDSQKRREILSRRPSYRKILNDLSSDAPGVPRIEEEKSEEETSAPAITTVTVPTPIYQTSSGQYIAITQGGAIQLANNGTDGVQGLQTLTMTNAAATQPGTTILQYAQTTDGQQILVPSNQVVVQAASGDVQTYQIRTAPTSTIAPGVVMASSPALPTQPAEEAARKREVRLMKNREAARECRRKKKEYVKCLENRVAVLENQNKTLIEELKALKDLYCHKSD

CC(C)=CCc1cc(C=CC(=O)O)cc(CC=C(C)C)c1O [APC, 3,5-diprenyl-4-hydroxycinnamic acid]
plasma and liver FGF21 (FGF21; Crtc2KO mice, oral 20 mg/kg, 3 weeks): did not further increase | liver FGF21 in CRTC2, group mean (Mean 2) (FGF21; Supp. Fig.10 f down, CRTC2KO mice, n=3, VEH mean 2.47): 2.579 | Bands density of FGF21 in the liver (FGF21; Supp. Fig.10 f down, CT2KO (CRTC2KO) mice, oral, individual replicates, Veh about 2.47): 2.47 and 2.45 and 2.816 | Bands density, plasma FGF21 in CRTC2 (FGF21; Supp. Fig.10 f up, CRTC2KO mice, individual replicates, VEH about 2.31): 2.4404 and 2.52 and 2.451 | Bands density, plasma FGF21 in CRTC2, group mean (Mean 2) (FGF21; Supp. Fig.10 f up, CRTC2KO mice, n=3, VEH mean 2.31): 2.47 | CBP/CRTC2 band gray signal, CRTC2-COIP fraction ([1]; Fig 2c replicates, APC+ (10 μM)): 0.6163 and 0.6152 and 0.6031 | interaction between endogenous CRTC2 and CBP ([1]; primary hepatocytes, APC 10 μM): little effect | HA/CREB in CREB-COIP fraction ([2]; APC +, Gluc +, APC in IP system +): 93.4971 and 123.554 and 124.784 | HA/CREB in CREB-COIP fraction ([2]; APC +, Gluc +, APC in IP system -): 234.39 and 222.083 and 222.525 | HA/CREB in CREB-COIP fraction ([2]; APC +, Gluc -, APC in IP system +): 106.115 and 87.7697 and 106.142 | HA/CREB in CREB-COIP fraction ([2]; APC +, Gluc -, APC in IP system -): 166.202 and 169.06 and 171.069 | HA/CREB in CREB-COIP fraction ([2]; APC -, Gluc +, APC in IP system +): 192.388 and 190.79 and 193.652 | HA/CREB in CREB-COIP fraction ([2]; APC -, Gluc -, APC in IP system +): 107.959 and 107.638 and 128.065 | HA-tagged CRTC2 immunoprecipitated by anti-CREB antibody ([2]; primary hepatocytes, with or without glucagon, APC 10 μM): greatly decreased
